According to patent US10086085B2, “Bifunctional cytotoxic agents” (priority 2014, dated 2018):
Where two headings read alike, the source gives them in different places.

What was measured:
[1] = test system: N87 (human gastric carcinoma derived from metastatic liver site); assay: Cytotoxicity assay for payloads (MTS), N87 cells; type: cell-based
Description: (§1) Cancer cell lines were obtained from ATCC (Manassas, Va.). N87 (human gastric carcinoma derived from metastatic liver site). HL60 (leukemia), A375 (melanoma) and HUVEC (human umbilical vein endothelial cells). were grown in RPMI 1640 media. All media were supplemented with 10% fetal bovine serum, 1% sodium pyruvate, and 1% L-glutamine (Invitrogen, Grand Island, N.Y.). Human umbilical vein endothelial cells (HUVEC) were obtained from Lonza (Allendale, N.J.) and maintained in EGM2 media supplemented with EGM-2 SingleQuots (Lonza # CC-4176). All cells were maintained in a humidified incubator (37° C., 5% CO2).
(§2) Cells in 100 μl medium were cultured in a 96-well plate. Cancer cell lines treated with the indicated compounds by adding 50 μl of 3× stocks in duplicate at 10 concentrations. Cells were incubated with compounds for four days, then 30 μl of CellTiter® 96 AQueous One MTS Solution (Promega Cat # G3582) was added to the cells, incubated 1.5 hr at 37° C., then absorbance measured at 490 nm on a Victor plate reader (Perkin Elmer, Waltham, Mass.). Relative cell viability was determined as a percentage of untreated control wells. IC50 values were calculated using four parameter logistic model #203 with XLfit v4.2 (IDBS, Guildford, Surry, UK).

HL60 (leukemia) = assay: Cytotoxicity assay for payloads (MTS), HL-60 cells; type: cell-based; conditions: Homo sapiens, 96 h, incubated with compounds for four days, MTS absorbance 490 nm
Description: as §1, §2

[2] = Homo sapiens, 96 h, N87 cells, incubated with compounds for four days, MTS absorbance 490 nm, read-out: N87 IC50

Row | SMILES | IC50 [1, 2] | other results
1 | O=C(N1C[C@@H](CCl)c2c1cc(O)c1ccccc21)C12CC(C(=O)N3C[C@@H](CCl)c4c3cc(OP(=O)(O)O)c3ccccc43)(C1)C2 [Compound 163, (1S)-1-(chloromethyl)-3-[(3-{[(1S)-1-(chloromethyl)-5-hydroxy-1,2-dihydro-3H-benzo[e]indol-3-yl]carbonyl}bicyclo[1.1.1]pent-1-yl)carbonyl]-2,3-dihydro-1H-benzo[e]indol-5-yl dihydrogen phosphate] | 6.89 nM | IC50 (HL60 (leukemia)): 0.179 nM
2 | CC(=O)Oc1cc2c(c3ccccc13)[C@H](CCl)CN2C(=O)c1ccc(C(=O)N2C[C@@H](CCl)c3c2cc(OC(C)=O)c2ccccc32)[nH]1 [Compound 68, (1S,1′S)-3,3′-(1H-pyrrole-2,5-dicarbonyl)bis(1-(chloromethyl)-2,3-dihydro-1H-benzo[e]indole-5,3-diyl)diacetate] | 0.033 nM | 
3 | CC(=O)Oc1cc2c(c3ccccc13)[C@H](CCl)CN2C(=O)Cc1ccc(CC(=O)N2C[C@@H](CCl)c3c2cc(OC(C)=O)c2ccccc32)s1 [Compound 160, thiene-2,5-diylbis[(1-oxoethane-2,1-diyl)(1S)-1-(chloromethyl)-1,2-dihydro-3H-benzo[e]indole-3,5-diyl] diacetate] | 12.7 nM | 
4 | COC(=O)Oc1cc2c(c3ccccc13)[C@H](CCl)CN2C(=O)c1ccc(C(=O)N2C[C@@H](CCl)c3c2cc(O)c2ccccc32)s1 [Compound 119, (S)-1-(chloromethyl)-3-(5-((S)-1-(chloromethyl)-5-hydroxy-2,3-dihydro-1H-benzo[e]indole-3-carbonyl)thiophene-2-carbonyl)-2,3-dihydro-1H-benzo[e]indol-5-yl methyl carbonate] | 0.004 nM | 
5 | CC(=O)Oc1cc2c(c3ccccc13)[C@H](CCl)CN2C(=O)c1cnc(C(=O)N2C[C@@H](CCl)c3c2cc(OC(C)=O)c2ccccc32)s1 [Compound 71, (1S,1′S)-3,3′-(thiazole-2,5-dicarbonyl)bis(1-(chloromethyl)-2,3-dihydro-1H-benzo[e]indole-5,3-diyl)diacetate] | 0.085 nM | 
6 | CC(=O)Oc1cc2c(c3ccccc13)[C@H](CCl)CN2C(=O)C12CCC(C(=O)N3C[C@@H](CCl)c4c3cc(O)c3ccccc43)(CC1)C2 [Compound 134, (1S)-1-(chloromethyl)-3-[(4-{[(1S)-1-(chloromethyl)-5-hydroxy-1,2-dihydro-3H-benzo[e]indol-3-yl]carbonyl}bicyclo[2.2.1]hept-1-yl)carbonyl]-2,3-dihydro-1H-benzo[e]indol-5-yl acetate] |  | IC50 (HL60 (leukemia)): 0.099 nM
7 | CN(C)CCNC(=O)Oc1cc2c(c3ccccc13)[C@H](CCl)CN2C(=O)c1ccc(C(=O)N2C[C@@H](CCl)c3c2cc(O)c2ccccc32)s1 [Compound 123, (S)-1-(chloromethyl)-3-(5-((S)-1-(chloromethyl)-5-hydroxy-2,3-dihydro-1H-benzo[e]indole-3-carbonyl)thiophene-2-carbonyl)-2,3-dihydro-1H-benzo[e]indol-5-yl(2-(dimethylamino)ethyl)carbamate] |  | IC50 ([1]; Homo sapiens, 96 h, read-out: N87 IC50 (nM)): 0.003 nM
8 | CNCCN(C)C(=O)Oc1cc2c(c3ccccc13)[C@H](CCl)CN2C(=O)c1ccc(C(=O)N2C[C@@H](CCl)c3c2cc(O)c2ccccc32)s1 [Compound 126, (S)-1-(chloromethyl)-3-(5-((S)-1-(chloromethyl)-5-hydroxy-2,3-dihydro-1H-benzo[e]indole-3-carbonyl)thiophene-2-carbonyl)-2,3-dihydro-1H-benzo[e]indol-5-ylmethyl(2-(methylamino)ethyl)carbamate] |  | IC50 ([1]; N87 cells, incubated with compounds for four days, MTS absorbance 490 nm, read-out: N87 IC50): 0.004 nM
9 | CC(=O)Oc1cc2c(c3ccccc13)[C@H](CCl)CN2C(=O)[C@H]1C[C@@H](C(=O)N2C[C@@H](CCl)c3c2cc(OC(C)=O)c2ccccc32)C1 [Compound 168, cis-cyclobutane-1,3-diylbis[carbonyl(1S)-1-(chloromethyl)-1,2-dihydro-3H-benzo[e]indole-3,5-diyl] diacetate] |  | IC50 (HL60 (leukemia)): 0.097 nM
10 | Cc1c[nH]c2c(O)cc3c(c12)[C@H](CCl)CN3C(=O)c1ccc(C(=O)N2C[C@@H](CCl)c3c2cc(O)c2ccccc32)s1 [Compound 117, ((S)-1-Chloromethyl-5-hydroxy-1,2-dihydro-benzo[e]indol-3-yl)-[5-((S)-1-chloromethyl-5-hydroxy-8-methyl-1,6-dihydro-2H-pyrrolo[3,2-e]indole-3-carbonyl)-thiophen-2-yl]methanone] | 0.004 nM | 
11 | CC(=O)OC[C@H]1O[C@@H](Oc2cc3c(c4ccccc24)[C@H](CCl)CN3C(=O)c2ccc(C(=O)N3C[C@@H](CCl)c4c3cc(O)c3ccccc43)s2)[C@H](OC(C)=O)[C@@H](OC(C)=O)[C@H]1OC(C)=O [Compound 153, (2R,3S,4S,5R,6S)-2-(acetoxymethyl)-6-(((S)-1-(chloromethyl)-3-(5-((S)-1-(chloromethyl)-5-hydroxy-2,3-dihydro-1H-benzo[e]indole-3-carbonyl)thiophene-2-carbonyl)-2,3-dihydro-1H-benzo[e]indol-5-yl)oxy)tetrahydro-2H-pyran-3,4,5-triyl triacetate] | 4.47 nM | 
12 | O=C(c1csc(C(=O)N2C[C@@H](CCl)c3c2cc(O)c2ccccc32)c1)N1C[C@@H](CCl)c2c1cc(O)c1ccccc21 [Compound 35, (S)-thiophene-2,4-diylbis(((S)-1-(chloromethyl)-5-hydroxy-1H-benzo[e]indol-3(2H)-yl)methanone)] | 1.21 nM | 
13 | CC(=O)Oc1cc2c(c3ccccc13)[C@H](CCl)CN2C(=O)CNCC(=O)N1C[C@@H](CCl)c2c1cc(OC(C)=O)c1ccccc21 [Compound 53, Acetic acid (S)-3-{2-[2-((S)-5-acetoxy-1-chloromethyl-1,2-dihydro-benzo[e]indol-3-yl)-2-oxo-ethylamino]-acetyl}-1-chloromethyl-2,3-dihydro-1H-benzo[e]indol-5-1 ester] |  | IC50 (HL60 (leukemia)): 0.012 nM
14 | CC(=O)Oc1cc2c(c3ccccc13)[C@H](CCl)CN2C(=O)[C@]12CCC[C@](C(=O)N3C[C@@H](CCl)c4c3cc(O)c3ccccc43)(C1)C2 [Compound 175, (1S)-1-(chloromethyl)-3-{[(1S,5S)-5-{[(1S)-1-(chloromethyl)-5-hydroxy-1,2-dihydro-3H-benzo[e]indol-3-yl]carbonyl}bicyclo[3.1.1]hept-1-yl]carbonyl}-2,3-dihydro-1H-benzo[e]indol-5-yl acetate] |  | IC50 (HL60 (leukemia)): 11.8 nM
15 | O=C(O)[C@H]1O[C@@H](Oc2cc3c(c4ccccc24)[C@H](CCl)CN3C(=O)c2ccc(C(=O)N3C[C@@H](CCl)c4c3cc(O)c3ccccc43)s2)[C@H](O)[C@@H](O)[C@@H]1O [Compound 164, (2S,3S,4S,5R,6S)-6-(((S)-1-(chloromethyl)-3-(5-((S)-1-(chloromethyl)-5-hydroxy-2,3-dihydro-1H-benzo[e]indole-3-carbonyl)thiophene-2-carbonyl)-2,3-dihydro-1H-benzo[e]indol-5-yl)oxy)-3,4,5-trihydroxytetrahydro-2H-pyran-2-carboxylic acid] |  | IC50 (HL60 (leukemia)): 0.057 nM
16 | O=C(N[C@@H](CCC(=O)N1C[C@@H](CCl)c2c1cc(O)c1ccccc21)C(=O)N1C[C@@H](CCl)c2c1cc(O)c1ccccc21)OCC1c2ccccc2-c2ccccc21 [Compound 60, [(S)-1-((S)-1-Chloromethyl-5-hydroxy-1,2-dihydro-benzo[e]indole-3-carbonyl)-4-((S)-1-chloromethyl-5-hydroxy-1,2-dihydro-benzo[e]indol-3-yl)-4-oxo-butyl]-carbamic acid 9H-fluoren-9-ylmethyl ester] | ≥ 10 nM | 
17 | Cn1c(C(=O)N2C[C@@H](CCl)c3c2cc(O)c2ccccc32)ccc1C(=O)N1C[C@@H](CCl)c2c1cc(O)c1ccccc21 [Compound 38, (S)-(1-methyl-1H-pyrrole-2,5-diyl)bis(((S)-1-(chloromethyl)-5-hydroxy-1H-benzo[e]indol-3(2H)-yl)methanone)] | ≥ 10 nM | 
18 | O=C(c1cncc(C(=O)N2C[C@@H](CCl)c3c2cc(O)c2ccccc32)c1)N1C[C@@H](CCl)c2c1cc(O)c1ccccc21 [Compound 26, (S)-pyridine-3,5-diylbis(((S)-1-(chloromethyl)-5-hydroxy-1H-benzo[e]indol-3(2H)-yl)methanone)] | ≥ 10 nM | 
19 | O=C(CCc1ccc(CCC(=O)N2C[C@@H](CCl)c3c2cc(O)c2ccccc32)s1)N1C[C@@H](CCl)c2c1cc(O)c1ccccc21 [Compound 146, 3,3′-thiene-2,5-diylbis{1-[(1S)-1-(chloromethyl)-5-hydroxy-1,2-dihydro-3H-benzo[e]indol-3-yl]propan-1-one}] | 3.1 nM | 
20 | CC(=O)Oc1cc2c(c3ccccc13)[C@H](CCl)CN2C(=O)c1ccc(C(=O)N2C[C@@H](CCl)c3c2cc(O)c2ccccc32)s1 [Compound 170, (1S)-1-(chloromethyl)-3-[(5-{[(1S)-1-(chloromethyl)-5-hydroxy-1,2-dihydro-3H-benzo[e]indol-3-yl]carbonyl}thiophen-2-yl)carbonyl]-2,3-dihydro-1H-benzo[e]indol-5-yl acetate] | 0.005 nM | 
21 | CC(=O)Oc1cc2c(c3ccccc13)[C@H](CCl)CN2C(=O)C12C3C4C1C1C2C3C41C(=O)N1C[C@@H](CCl)c2c1cc(OC(C)=O)c1ccccc21 (stereo partly drawn) [Compound 181, pentacyclo[4.2.0.0~2,5~.0~3,8~.0~4,7~]octane-1,4-diylbis[carbonyl(1S)-1-(chloromethyl)-1,2-dihydro-3H-benzo[e]indole-3,5-diyl] diacetate] | 0.005 nM | 
